Residues, ends and D or L forms follow the SMILES beside them.
Assays:
Nav1.7 D816R = biological target: T1, Nav1.7 D816R (Homo sapiens, UniProt Q15858, D827R); experiment: Whole-cell patch clamp, Nav1.7 mutant D816R in HEK293 cells; type: cell-based
T1 construct: expressed in transfected cells; host or cells: HEK293 (HEK293T) cells, transient
Text: We next investigated the critical residues in DIIS3-S4 linker that determined the sensitivity of Nav1.7 to JZTX-34. An acidic residue, D816, is present in the DIIS3-S4 linker of Nav1.7, while the corresponding residue in Nav1.5 is an alkaline amino acid, R800. To determine whether the acidic residue D816 occupies an important role in toxin binding, we constructed two mutants: D816R of Nav1.7 and R800D of Nav1.5. One µM of JZTX-34 inhibited 54.3 ± 5.2% of WT Nav1.7 currents (Figure 4A), but only 16.8 ± 4.6% currents of D816R were inhibited at the same concentration (Figure 4B). […] To further confirm the key role of D816R in blocking Nav1.7 by JZTX-34, we examined the effect of JZTX-34 on Nav1.5 mutant R800D. […] Thus, the acidic residue D816 in DIIS3-S4 linker may be critical for the sensitivity of Nav1.7 to JZTX-34.
Figure 4 Effects of JZTX-34 on mutants of Nav1.7 and Nav1.5. (A) Amino acid sequence alignment of DII S3-S4 linker of Nav1.5 and Nav1.7 and schematic diagram of sodium channel α subunit. The positions of amino acids of interest are shaded in bold black. […]
(§1) The HEK293T cells were maintained in standard culture conditions (5% CO2 and 37 °C). […] After culturing for 36–72 h, cells with obvious green fluorescence were selected for sodium currents recordings the internal solution for sodium currents recording that contained (in mM) 140 CsF, 5 NaCl, 10 HEPES, 3 Na2-ATP, and 10 EGTA. […]
(§2) Sodium currents were recorded from DRG, HEK293, and ND cells by the whole-cell patch-clamp technique at 25 °C. […] Experiments date were acquired from whole-cell Axon 700B patch clamp amplifier (Molecular Devices, Sunnyvale, CA, USA) and analyzed by the program Clampfit10.0 (Molecular Devices, Sunnyvale, CA, USA) and Sigmaplot. […]
Data from Axon 700B patch clamp were analyzed by Clampfit10.0 (Molecular Devices, Sunnyvale, CA, USA). […] The G-V curves were obtained by calculating the conductance (G) at each voltage (V) using the equation G = I/(V1 − Vrev), with Vrev being the reversal potential determined for each cell individually. […]

hNav1.7 = biological target: T2, hNav1.7 (Homo sapiens, UniProt Q15858); experiment: Whole-cell patch clamp, WT Nav1.7 in HEK293 cells; type: cell-based
T2 construct: expressed in transfected cells; host or cells: HEK293 (HEK293T) cells, transient
T2 sequence (Q07699 19-218): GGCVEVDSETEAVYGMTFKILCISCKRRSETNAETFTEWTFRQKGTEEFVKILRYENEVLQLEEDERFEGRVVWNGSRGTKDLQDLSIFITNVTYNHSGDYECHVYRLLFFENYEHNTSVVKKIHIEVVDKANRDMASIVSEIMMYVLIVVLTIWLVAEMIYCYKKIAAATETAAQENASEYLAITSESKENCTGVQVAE
T2 sequence (Q15858 other isoform, or with tags, fused parts or gaps): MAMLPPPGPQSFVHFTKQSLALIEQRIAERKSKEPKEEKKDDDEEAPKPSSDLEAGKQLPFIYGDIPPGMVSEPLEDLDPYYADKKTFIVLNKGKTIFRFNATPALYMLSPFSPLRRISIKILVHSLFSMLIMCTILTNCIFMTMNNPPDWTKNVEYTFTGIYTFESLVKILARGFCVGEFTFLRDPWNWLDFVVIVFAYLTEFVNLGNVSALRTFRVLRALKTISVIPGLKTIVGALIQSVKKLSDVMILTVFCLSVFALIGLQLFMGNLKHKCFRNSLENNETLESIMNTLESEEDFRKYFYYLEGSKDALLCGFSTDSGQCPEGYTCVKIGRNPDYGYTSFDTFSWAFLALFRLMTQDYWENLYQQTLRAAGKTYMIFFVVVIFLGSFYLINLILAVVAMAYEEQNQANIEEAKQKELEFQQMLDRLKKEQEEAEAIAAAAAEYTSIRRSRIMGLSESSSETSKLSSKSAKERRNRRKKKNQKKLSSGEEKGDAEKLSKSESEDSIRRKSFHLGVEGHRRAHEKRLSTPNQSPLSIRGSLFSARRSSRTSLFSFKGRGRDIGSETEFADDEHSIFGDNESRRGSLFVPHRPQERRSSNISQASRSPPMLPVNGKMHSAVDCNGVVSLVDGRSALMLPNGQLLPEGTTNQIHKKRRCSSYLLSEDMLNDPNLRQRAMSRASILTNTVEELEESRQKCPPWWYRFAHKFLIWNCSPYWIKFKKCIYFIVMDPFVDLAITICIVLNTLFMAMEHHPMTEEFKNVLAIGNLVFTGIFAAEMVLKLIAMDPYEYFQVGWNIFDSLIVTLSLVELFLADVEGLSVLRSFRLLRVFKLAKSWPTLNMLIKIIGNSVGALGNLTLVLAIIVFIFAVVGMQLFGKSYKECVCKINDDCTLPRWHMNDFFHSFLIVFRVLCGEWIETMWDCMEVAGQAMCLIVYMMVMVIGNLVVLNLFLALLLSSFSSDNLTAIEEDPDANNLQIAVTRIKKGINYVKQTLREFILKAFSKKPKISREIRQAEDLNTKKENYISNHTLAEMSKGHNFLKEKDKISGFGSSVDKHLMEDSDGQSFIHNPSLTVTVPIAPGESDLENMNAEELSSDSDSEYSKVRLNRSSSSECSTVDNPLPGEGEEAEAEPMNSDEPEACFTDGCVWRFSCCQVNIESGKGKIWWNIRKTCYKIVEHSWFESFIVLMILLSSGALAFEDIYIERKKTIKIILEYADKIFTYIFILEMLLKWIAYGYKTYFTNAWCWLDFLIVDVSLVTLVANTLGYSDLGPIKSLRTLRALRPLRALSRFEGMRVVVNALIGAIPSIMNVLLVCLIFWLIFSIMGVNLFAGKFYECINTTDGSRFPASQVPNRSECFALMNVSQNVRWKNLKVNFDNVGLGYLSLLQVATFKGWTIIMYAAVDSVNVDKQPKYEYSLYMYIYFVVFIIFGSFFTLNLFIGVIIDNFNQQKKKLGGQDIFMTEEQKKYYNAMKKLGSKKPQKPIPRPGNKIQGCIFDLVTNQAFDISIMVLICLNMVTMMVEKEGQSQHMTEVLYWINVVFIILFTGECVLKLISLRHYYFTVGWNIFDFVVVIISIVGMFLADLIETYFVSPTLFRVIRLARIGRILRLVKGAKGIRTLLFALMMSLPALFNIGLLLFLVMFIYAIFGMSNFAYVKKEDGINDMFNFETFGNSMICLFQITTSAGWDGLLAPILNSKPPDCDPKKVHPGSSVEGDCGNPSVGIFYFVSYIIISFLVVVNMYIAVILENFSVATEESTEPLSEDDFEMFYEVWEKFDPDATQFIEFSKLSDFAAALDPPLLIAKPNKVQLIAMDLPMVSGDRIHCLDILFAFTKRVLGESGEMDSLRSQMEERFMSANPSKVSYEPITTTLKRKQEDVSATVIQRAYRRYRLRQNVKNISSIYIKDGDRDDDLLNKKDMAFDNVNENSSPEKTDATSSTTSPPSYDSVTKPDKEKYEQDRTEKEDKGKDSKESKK
Text: Nine sodium channel subtypes have been identified and classified as TTX-S (Nav1.1–Nav1.4, Nav1.6, and Nav1.7) or TTX-R types (Nav1.5, Nav1.8, and Nav1.9). […] However, the subtype selectivity of JZTX-34 on the subtype of sodium channel is still unknown. In this work, effects of JZTX-34 on VGSC subtypes (Nav1.1–Nav1.8) were examined. Nav1.1–Nav1.7 were transfected into HEK293 cells and Nav1.8 currents were expressed in ND cells. Inward sodium currents were elicited by a 50 ms depolarizing potential to −10 mV from a holding potential of −80 mV every 5 s. […] No effects on other sodium channel subtypes were found (Nav1.1, Nav1.2, Nav1.4–Nav1.6, and Nav1.8) (Figure S2).
Figure 2 Selectivity of JZTX-34 on sodium channel subtypes. All inward sodium channels were elicited by a 50 ms depolarizing potential to −10 mV from a holding potential of −80 mV every 5 s. One μM JZTX-34 was added to rNav1.3. (A) hNav1.7. (B,C) Dose-dependent inhibition of JZTX-34 on rNav1, rNav3, and hNav1.7 (n = 5). […]
as §1, §2
Data from Axon 700B patch clamp were analyzed by Clampfit10.0 (Molecular Devices, Sunnyvale, CA, USA). […] The G-V curves were obtained by calculating the conductance (G) at each voltage (V) using the equation G = I/(V1 − Vrev), with Vrev being the reversal potential determined for each cell individually. […] All the results from patch clamp and animal models are expressed as means ± standard error of the mean (SEM). […]

T1 sequence (Q15858 other isoform, or with tags, fused parts or gaps D816R): as the sequence (Q15858 other isoform, or with tags, fused parts or gaps) above, with D816R counted along it
T1 sequence (Q07699 19-218, further chain): as the sequence (Q07699 19-218) above

CC(C)C[C@@H]1NC(=O)[C@H](Cc2c[nH]c3ccccc23)NC(=O)[C@H](CCC(=O)O)NC(=O)[C@H](CCCNC(=N)N)NC(=O)[C@@H](NC(=O)[C@H](C)N)CSSC[C@@H]2NC(=O)[C@@H]3CSSC[C@@H](C(=O)N[C@H](C(=O)N[C@@H](Cc4c[nH]c5ccccc45)C(=O)N[C@@H](CC(=O)O)C(=O)N[C@@H](Cc4c[nH]c5ccccc45)C(=O)N[C@H](C(=O)N[C@H](C(=O)O)C(C)C)[C@@H](C)O)C(C)C)NC(=O)[C@H](Cc4c[nH]cn4)NC(=O)[C@H](Cc4ccc(O)cc4)NC(=O)[C@@H]4CCCN4C(=O)[C@H](Cc4c[nH]c5ccccc45)NC(=O)[C@H](CCCCN)NC(=O)[C@H](CCCCN)NC(=O)[C@H](CCCNC(=N)N)NC(=O)[C@H](CSSC[C@H](NC(=O)CNC(=O)CNC1=O)C(=O)N[C@@H](CO)C(=O)N[C@@H](CCCCN)C(=O)N[C@@H](CC(=O)O)C(=O)N[C@@H](C)C(=O)N[C@@H](CC(=O)O)C(=O)N3)NC(=O)[C@H](CCC(=O)O)NC(=O)[C@H](CC(C)C)NC(=O)[C@H](Cc1c[nH]cn1)NC(=O)[C@H](C)NC2=O [JZTX-34, Jingzhaotoxin-34] (HELM PEPTIDE1{A.C.R.E.W.L.G.G.C.S.K.D.A.D.C.C.A.H.L.E.C.R.K.K.W.P.Y.H.C.V.W.D.W.T.V}$PEPTIDE1,PEPTIDE1,2:R3-16:R3|PEPTIDE1,PEPTIDE1,9:R3-21:R3|PEPTIDE1,PEPTIDE1,15:R3-29:R3$$$V2.0; N-terminus and C-terminus assumed)
inhibition at 1 µM (Nav1.7 D816R; HEK293, 1 µM, read-out: inhibition of Nav1.7 D816R currents): 16.8 ± 4.6%
IC50 (Nav1.7 D816R; Hill fit, n = 5): 19.5 µM
decrease of binding affinity by D816R vs WT Nav1.7 (Nav1.7 D816R; relative to WT Nav1.7): about 32 fold
inhibition at 1 µM (hNav1.7; 1 µM, mutant comparison experiment (Figure 4), read-out: inhibition of WT Nav1.7 currents): 54.3 ± 5.2%
reduction of Nav1.7 currents (hNav1.7; 1 µM, −10 mV from −80 mV holding, mean ± S.E., subtype selectivity experiment (Figure 2)): 54.6 ± 5.3%
IC50 (hNav1.7; −10 mV from −80 mV holding, Hill fit, n = 5): 0.61 µM

— publication PMC5848165 (Toxins, 2018)
